Active and inactive are the calls of the source. The rule behind the calls is not given here.

Sequence of Myc proto-oncogene protein (Homo sapiens) (P01106 whole entry): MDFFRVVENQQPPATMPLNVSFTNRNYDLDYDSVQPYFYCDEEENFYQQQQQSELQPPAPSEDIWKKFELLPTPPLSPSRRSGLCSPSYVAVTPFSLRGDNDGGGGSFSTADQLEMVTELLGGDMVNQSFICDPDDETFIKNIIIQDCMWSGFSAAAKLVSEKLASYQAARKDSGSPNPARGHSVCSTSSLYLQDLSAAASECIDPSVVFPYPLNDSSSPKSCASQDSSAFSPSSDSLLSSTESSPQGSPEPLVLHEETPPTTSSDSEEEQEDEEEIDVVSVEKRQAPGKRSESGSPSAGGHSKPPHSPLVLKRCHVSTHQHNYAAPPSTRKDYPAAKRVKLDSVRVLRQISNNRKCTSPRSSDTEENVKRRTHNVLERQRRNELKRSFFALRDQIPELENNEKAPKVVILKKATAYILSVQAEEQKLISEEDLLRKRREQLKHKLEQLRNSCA

The first assay relates to Daudi. Put plainly: Antiproliferative activity against human Daudi assessed as reduction in cell viability measured after 2 hrs. In kind it is functional, cell-based.
Settings: not given
Consider `CCOc1ccc2nc3cc(/N=N/c4ccc(N)nc4N)ccc3c(N)c2c1`, for which the EC50 came to 0.5 µM.

System in another assay: not listed separately
Put plainly: Antiproliferative activity against human Mutu-1 assessed as reduction in cell viability measured after 2 hrs. The following applies: Mutu-1, 2 h. In kind it is functional.
Turning to `CCOc1ccc2nc3cc(/N=N/c4ccc(N)nc4N)ccc3c(N)c2c1`, the EC50 came to 0.5 µM.

Another assay relates to ST486. In words: Antiproliferative activity against human ST486 assessed as reduction in cell viability measured after 2 hrs. In kind it is functional, cell-based. Particulars: ST486, 2 h.
Turning to `CCOc1ccc2nc3cc(/N=N/c4ccc(N)nc4N)ccc3c(N)c2c1`, the EC50 turned out to be 0.5 µM.

The next assay concerns the target Myc proto-oncogene protein (Homo sapiens) (UniProt P01106). Put plainly: Induction of c-Myc degradation in human HL-60 cells assesses as decrease in c-Myc protein level measured after 24 hrs by Western blot analysis. In kind it is cell-based. Particulars: dose 3.125-25 µM.
For the compound `O=C(NC(NC(=S)Nc1ccc(I)cc1)C(Cl)(Cl)Cl)c1cccc(I)c1` (stereo not drawn), the Activity result was “Dose-dependent effect”.

The target of another assay is c-Myc/c-Max (Homo sapiens, UniProt P01106). Put plainly: (§1) Inhibition of Nanoluc-tagged c-Myc/Halo-tagged MAX (unknown origin) interaction expressed in HEK293T cells assessed as degradation measured after 4 to 6 hrs by NanoBRET assay. Format: cell-based.
Sequence of c-Myc/c-Max (P01106 whole entry): as above
Sequence of c-Myc/c-Max (P61244 whole entry, further chain): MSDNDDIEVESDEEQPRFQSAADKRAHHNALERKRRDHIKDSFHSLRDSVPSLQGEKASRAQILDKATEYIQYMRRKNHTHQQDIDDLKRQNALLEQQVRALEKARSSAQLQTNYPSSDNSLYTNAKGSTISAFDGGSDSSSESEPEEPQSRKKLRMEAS
Settings: not given
(Bioluminescence resonance energy transfer reports proximity on the nanometre scale.)
Take `O=C(NC(NC(=S)Nc1ccc(I)cc1)C(Cl)(Cl)Cl)c1cccc(I)c1` (stereo not drawn): the EC50 is 29.1 µM.

The target of a further assay is c-Myc/c-Max (Homo sapiens) (UniProt P01106+P61244). The description is as §1. The following applies: time 4-6 hrs. Format: cell-based.
Sequence of c-Myc/c-Max (Homo sapiens) (P01106 whole entry): as the sequence (P01106 whole entry) above
Sequence of c-Myc/c-Max (Homo sapiens) (P61244 2-160 partner limits assumed): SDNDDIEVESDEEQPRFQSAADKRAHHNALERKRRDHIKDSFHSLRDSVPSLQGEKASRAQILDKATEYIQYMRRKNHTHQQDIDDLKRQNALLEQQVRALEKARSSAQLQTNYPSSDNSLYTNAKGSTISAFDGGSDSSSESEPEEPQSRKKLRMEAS
Take `O=C(NC(NC(=S)Nc1ccc(I)cc1)C(Cl)(Cl)Cl)c1cccc(I)c1` (stereo not drawn): the inhibition result was “Dose-dependent effect”.

The next assay has as its system HL-60. In words: Cell cycle arrest in human HL-60 cells assessed as accumulation at S-phase at 3.125 to 6.25 uM measured after 24 hrs by propidium iodide staining based flow cytometry. In kind it is functional. Particulars: dose 3.125-6.25 µM. Background: A flow cytometer gives signals particle by particle.
On to `O=C(NC(NC(=S)Nc1ccc(I)cc1)C(Cl)(Cl)Cl)c1cccc(I)c1` (stereo not drawn), for which the result was Active.

A further assay concerns HL-60. Put plainly: Antiproliferative activity against human HL-60 cells assessed as inhibition of cell proliferation incubated for 72 hrs. In kind it is functional, cell-based. Particulars: HL-60, 72 h.
As for `COc1ccccc1NC(=S)NC(NC=O)C(Cl)(Cl)Cl` (stereo not drawn), the EC50 is above 100 µM.

For the compound `O=C(NC(NC(=S)Nc1ccc(Cl)cc1)C(Cl)(Cl)Cl)OCc1ccccc1` (stereo not drawn), the EC50 came to 6.1 µM.

On to `O=C(/C=C/c1ccccc1)NC(NC(=S)Nc1cccc2ccccc12)C(Cl)(Cl)Cl` (stereo not drawn), for which the EC50 was found to be 3.4 µM.

Regarding `O=C(NC(NC(=S)Nc1ccc(Cl)cc1Cl)C(Cl)(Cl)Cl)OCc1ccccc1` (stereo not drawn), the EC50 stood at 10.6 µM.

With `O=C(NCNC(=S)Nc1ccc(Cl)cc1)c1ccccc1`, the EC50 was above 50 µM.

For the compound `Cc1cccc(NC(=S)NC(NC(=O)c2ccccc2C)C(Cl)(Cl)Cl)c1` (stereo not drawn), the EC50 amounted to 22.9 µM.

For `O=C(NC(NC(=S)Nc1ccc(I)cc1)C(Cl)(Cl)Cl)c1cccc(I)c1` (stereo not drawn), the EC50 is 3.3 µM.

As to `CCOC(=O)NC(NC(=S)Nc1ccc(C)cc1)C(Cl)(Cl)Cl` (stereo not drawn), the EC50 is above 50 µM.

As for `NS(=O)(=O)c1ccc(NC(=S)NC(NC(=O)c2ccccc2)C(Cl)(Cl)Cl)cc1` (stereo not drawn), the EC50 is above 50 µM.

For the compound `O=C(NC(NC(=S)Nc1ccc(Cl)cc1Cl)C(Cl)(Cl)Cl)c1ccccc1` (stereo not drawn), the EC50 turned out to be 9.1 µM.

For the compound `COC(=O)c1ccc(NC(=S)NC(NC(=O)OCc2ccccc2)C(Cl)(Cl)Cl)cc1` (stereo not drawn), the EC50 came to 10.2 µM.

As to `O=C(NC(NC(=S)Nc1cccc(Cl)c1)C(Cl)(Cl)Cl)OCc1ccccc1` (stereo not drawn), the EC50 was determined as 8.3 µM.

As to `COc1ccc(NC(=S)NC(NC(=O)OCc2ccccc2)C(Cl)(Cl)Cl)cc1` (stereo not drawn), the EC50 was above 50 µM.

For the compound `CCCCCC(=O)NC(NC(=S)Nc1ccc(C)cc1)C(Cl)(Cl)Cl` (stereo not drawn), the EC50 is above 50 µM.

Turning to `COc1ccc(NC(=S)NC(NC(=O)Cc2ccccc2)C(Cl)(Cl)Cl)cc1` (stereo not drawn), the EC50 is above 50 µM.

Consider `Cc1ccc(NC(=S)NC(NC(=O)OCc2ccccc2)C(Cl)(Cl)Cl)cc1` (stereo not drawn), for which the EC50 turned out to be 24.9 µM.

With `O=C(NC(NC(=S)Nc1ccc(Br)cc1)C(Cl)(Cl)Cl)OCc1ccccc1` (stereo not drawn), the EC50 stood at 6.1 µM.

On to `O=C(NC(NC(=S)Nc1ccc(Cl)cc1)C(Cl)(Cl)Cl)c1ccccc1` (stereo not drawn), for which the EC50 was 5 µM.

On to `O=C(CF)NC(NC(=S)Nc1ccc(Cl)cc1)C(Cl)(Cl)Cl` (stereo not drawn), for which the EC50 worked out at 24.8 µM.

Take `COC(=O)c1ccccc1NC(=S)NC(NC(=O)c1ccc(C)cc1)C(Cl)(Cl)Cl` (stereo not drawn): the EC50 was found to be 23.1 µM.

`Cc1ccccc1C(=O)NC(NC(=S)Nc1ccccc1)C(Cl)(Cl)Cl` (stereo not drawn): the EC50 stood at 10.8 µM.

Regarding `COC(=O)c1ccc(NC(=S)NC(NC(=O)c2cccc3ccccc23)C(Cl)(Cl)Cl)cc1` (stereo not drawn), the EC50 came out at 7.3 µM.

In the case of `Cc1ccc(NC(=S)NC(NC(=O)c2ccc(Br)cc2)C(Cl)(Cl)Cl)cc1` (stereo not drawn), the EC50 came out at 17.2 µM.

Turning to `Cc1ccccc1C(=O)NC(NC(=S)Nc1ccccc1I)C(Cl)(Cl)Cl` (stereo not drawn), the EC50 was 13.8 µM.

On to `CC(=O)NC(NC(=S)Nc1c(Cl)cc(Cl)cc1Cl)C(Cl)(Cl)Cl` (stereo not drawn), for which the EC50 worked out at 24 µM.

With `O=C(NC(NC(=S)Nc1ccc(Cl)cc1)C(Cl)(Cl)Cl)c1ccccc1Cl` (stereo not drawn), the EC50 worked out at 5.9 µM.

As to `Cc1ccc(NC(=S)NC(NC(=O)c2ccccc2)C(Cl)(Cl)Cl)cc1` (stereo not drawn), the EC50 stood at 4.2 µM.

On to `CCCCCCCCC(=O)NC(NC(=S)Nc1ccccc1C)C(Cl)(Cl)Cl` (stereo not drawn), for which the EC50 was above 100 µM.

With `Cc1ccc(NC(=S)NC(NC(=O)Cc2ccccc2)C(Cl)(Cl)Cl)cc1` (stereo not drawn), the 50% effective concentration (EC50) is above 50 µM.

Consider `CC(=O)Nc1ccc(NC(=S)NC(NC(=O)c2ccccc2C)C(Cl)(Cl)Cl)cc1` (stereo not drawn), for which the EC50 is above 50 µM.

Turning to `Cc1cccc(NC(=S)NC(NC(=O)c2ccccc2)C(Cl)(Cl)Cl)c1` (stereo not drawn), the EC50 came out at 10.6 µM.

`CCOC(=O)NC(NC(=S)Nc1ccc(I)cc1)C(Cl)(Cl)Cl` (stereo not drawn): the EC50 amounted to 9.9 µM.

As to `COC(=O)c1ccc(NC(=S)NC(NC(=O)c2ccccc2C)C(Cl)(Cl)Cl)cc1` (stereo not drawn), the EC50 worked out at 14.3 µM.

As for `O=C(NC(NC(=S)Nc1cccc2ccccc12)C(Cl)(Cl)Cl)OCc1ccccc1` (stereo not drawn), the EC50 is 6.9 µM.

For `Cc1cccc(NC(=S)NC(NC(=O)Cc2ccccc2)C(Cl)(Cl)Cl)c1` (stereo not drawn), the EC50 is above 100 µM.

With `CC(C)C(=O)NC(NC(=S)Nc1ccc(Cl)cc1)C(Cl)(Cl)Cl` (stereo not drawn), the EC50 is above 100 µM.

For the compound `Cc1cccc(NC(=S)NC(NC(=O)CF)C(Cl)(Cl)Cl)c1` (stereo not drawn), the half-maximal effective concentration (EC50) is above 100 µM.

As to `Cc1ccc(NC(=S)NC(NC(=O)CC(C)C)C(Cl)(Cl)Cl)cc1` (stereo not drawn), the EC50 worked out at 33.7 µM.

Turning to `CCOC(=O)NC(NC(=S)Nc1c(Cl)cc(Cl)cc1Cl)C(Cl)(Cl)Cl` (stereo not drawn), the EC50 worked out at 42.8 µM.

Take `Cc1ccccc1C(=O)NC(NC(=S)Nc1ccc(Cl)c(Cl)c1)C(Cl)(Cl)Cl` (stereo not drawn): the EC50 stood at 4.5 µM.

`O=C(NC(NC(=S)Nc1ccc(F)cc1)C(Cl)(Cl)Cl)OCc1ccccc1` (stereo not drawn): the EC50 is 11.7 µM.

On to `O=C(CF)NC(NC(=S)Nc1ccccc1Cl)C(Cl)(Cl)Cl` (stereo not drawn), for which the EC50 is above 50 µM.

`O=C(NC(NC(=S)Nc1ccc(Cl)c(Cl)c1)C(Cl)(Cl)Cl)OCc1ccccc1` (stereo not drawn): the EC50 worked out at 8.2 µM.

`Cc1ccc(N=C(S)NC(NC(=O)c2ccccc2)C(Cl)(Cl)Cl)c(C)c1` (stereo not drawn): the 50% effective concentration (EC50) was 8.1 µM.

For the compound `O=C(NC(NC(=S)Nc1ccccc1)C(Cl)(Cl)Cl)OCc1ccccc1` (stereo not drawn), the EC50 is 16.7 µM.

On to `O=C(Cc1ccccc1)NC(NC(=S)Nc1ccc(Cl)c(Cl)c1)C(Cl)(Cl)Cl` (stereo not drawn), for which the EC50 turned out to be 32.5 µM.

For `Cc1ccccc1N=C(S)NC(NC(=O)CF)C(Cl)(Cl)Cl` (stereo not drawn), the EC50 is above 100 µM.

Regarding `Cc1ccc(NC(S)=NC(NC(=O)N(C)C)C(Cl)(Cl)Cl)cc1` (stereo not drawn), the EC50 was above 50 µM.

With `Cc1ccc(C(=O)NC(NC(=S)Nc2cc(C(F)(F)F)ccc2Cl)C(Cl)(Cl)Cl)cc1` (stereo not drawn), the EC50 is 8.7 µM.

The next assay concerns HL-60. Put plainly: Induction of apoptosis in human HL-60 cells at 1 to 20 uM measured after 24 hrs by FITC-Annexin-v/propidium iodide staining based flow cytometry. Format: functional, cell-based. Particulars: dose 1-20 µM.
As for `O=C(NC(NC(=S)Nc1ccc(I)cc1)C(Cl)(Cl)Cl)c1cccc(I)c1` (stereo not drawn), the result was Active.

System in another assay: not listed separately
Put plainly: Antiproliferative activity against rat TGR-1 harboring c-Myc assessed as reduction in cell viability measured on day 3 by MTT assay. Format: functional. The following applies: TGR1, 72 h. In general terms: Formazan colour is commonly taken as a measure of viable cells.
For `CCOC(=O)c1cnn(-c2ccccc2)c1NC(=O)c1cc2nc(-c3ccco3)cc(C(F)(F)Cl)n2n1`, the EC50 amounted to 0.25 µM.

The EC50 is the concentration giving half of the maximal effect.
